Columns and labels:
LNCaP C4-2 cells = assay: Apoptosis after CHEM+RT in androgen-insensitive cells; assay type: cell-based; conditions: data not shown
[1] = tested on: LNCaP cells grown orthotopically in the prostates of nude mice; assay: Orthotopic LNCaP prostate tumor model, serum PSA and tumor volume (MRI); assay type: in vivo; conditions: 30 mg/kg body weight/day intraperitoneally for 15 days + radiation 5 Gray on day 7; preliminary study
Experimental: FIG. 4. Depicts the in vivo effects of 1-O-octadecyl-2-O-methyl-glycero-3-phosphocholine (30 mg/kg body weight/day administered intraperitoneally for 15 days: FIG. 4A), (ionizing) radiation (absorbed dose of 5 Gray units administered on day 7; FIG. 4C), and a combination thereof (FIG. 4B) on LNCaP cells grown orthotopically in the prostates of nude mice (seven mice/group). Tumor growth was assessed via determining the serum level of the prostate-specific antigen (PSA) using a commercially available test kit as well as the tumor volume by means of magnetic resonance imaging.
Additionally, in a preliminary study the in vivo effects of 1-O-octadecyl-2-O-methyl-glycero-3-phosphocholine (ionizing) radiation, and a combination thereof on LNCaP cells grown orthotopically in the prostates of nude mice (seven mice/group) was investigated.
1-O-octadecyl-2-O-methyl-glycero-3-phosphocholine was administered intraperitoneally in a dose of 30 mg/kg body weight/day administered intraperitoneally for 15 days (FIG. 4A; studies using different routes of administration such as orally or by gavage are currently under way). […] Tumor growth was assessed via determining the serum level of the prostate-specific antigen (PSA) using a commercially available test kit as well as the tumor volume by means of magnetic resonance imaging.

[2] = tested on: LNCaP androgen-sensitive human prostate adenocarcinoma cells; assay: Apo-ONE Homogenous Caspase-3/7 Assay (apoptosis); assay type: cell-based
Experimental: (§1) FIG. 3. Depicts the in vitro effects of 1-O-octadecyl-2-O-methyl-glycero-3-phosphocholine (final concentration 10 μM), (ionizing) radiation (absorbed dose of 5 Gray units; indicated as “RT”), and a combination thereof on programmed cell death (apoptosis) and the survival rate of LNCaP androgen-sensitive human prostate adenocarcinoma cells. Apoptosis was determined using the Apo-ONE™ Homogenous Caspase-3/7 Assay, Promega, Inc., Madison, Wis., USA according to the manufacturer's instructions. The percentage of living cancer cells was estimated by means of trypan blue dye exclusion as described (Freshney, R. I. (1994) Culture of Animal Cells: A Manual of Basic Technique. 3rd Ed. Wiley-Liss. New York. USA). The cells were exposed to radiation six hours after (FIG. 3A), concomitantly with (FIG. 3B), or six hours before administration of 1-O-octadecyl-2-O-methyl-glycero-3-phospho-choline (FIG. 3C). The caspase assay was performed 12 hours after exposure to radiation. The respective data shown represent the average of two independent experiments.
(§2) First, the in vitro effects of 1-O-octadecyl-2-O-methyl-glycero-3-phosphocholine, (ionizing) radiation, and a combination thereof on programmed cell death (apoptosis) and the survival rate of LNCaP androgen-sensitive human prostate adenocarcinoma cells were measured. The LNCaP cell line was established from a metastatic lesion of the adenocarcinoma. The cells were treated with a final concentration of 10 μM 1-O-octadecyl-2-O-methyl-glycero-3-phosphocholine and (ionizing) radiation corresponding to an absorbed dose of 5 Gray units.
(§3) Apoptosis was determined using the Apo-ONE™ Homogenous Caspase-3/7 Assay, Promega, Inc., Madison, Wis., USA according to the manufacturer's instructions. The percentage of living tumor cells was estimated by means of trypan blue dye exclusion as described (Freshney, R. I. (1994) Culture of Animal Cells: A Manual of Basic Technique. 3rd Ed. Wiley-Liss. New York. USA)
(§4) The cells were exposed to radiation six hours after (FIG. 3A), concomitantly with (FIG. 3B), or six hours before administration of 1-O-octadecyl-2-O-methyl-glycero-3-phospho-choline (FIG. 3C). The caspase assay was performed 12 hours after exposure to radiation. The respective data shown represent the average of two independent experiments.
(§5) In a further approach, 10 μM 1-O-octadecyl-2-O-methyl-glycero-3-phosphocholine (final concentration; “CHEM”) and (ionizing) radiation (5 Gray units; “RT”) were administered simultaneously to the LNCaP cells but the subsequent incubation period was extended to 24 hours. Apoptosis was measured using the Apo-ONE™ Homogenous Caspase-3/7 Assay as described above and expressed as relative fluorescence units (RFLU). The percentage of apoptotic cells was determined by flow cytometric analysis of annexin V-PE positive-stained and 7-AAD (7-Amino ActinomycinD) negative-stained cells (both purchased from BD Biosciences, San Jose, Calif., USA) according to established standard protocols. The data represent means±SEM from three independent experiments.
(§6) Next, the interaction of 1-O-octadecyl-2-O-methyl-glycero-3-phosphocholine administration (“CHEM”) and androgen deprivation (“AD”) was investigated. LNCaP cells were deprived of androgen for two days by charcoal absorption of serum according to established procedures well known in the art. CHEM was added in a final concentration of 5 μM and 10 μM, respectively.
(§7) Apoptosis was measured using the Apo-ONE™ Homogenous Caspase-3/7 Assay as described above and expressed as relative fluorescence units (RFLU). The percentage of apoptotic cells was determined via annexin V-PE/7-AAD staining as described above. The caspase-3/7 assay and annexin staining were performed 22 hours after CHEM treatment.

LNCaP-Res cells = assay: Apoptosis after CHEM+RT in androgen-insensitive cells; assay type: cell-based; conditions: data not shown
LNCaP cells = assay: Flow cytometry of annexin V-PE positive / 7-AAD negative cells (apoptotic cells); assay type: cell-based, human
Experimental: as §5, §6, §7

[3] = tested on: LNCaP androgen-sensitive human prostate adenocarcinoma cells; assay: Trypan blue dye exclusion, percentage of living tumor cells; assay type: cell-based; conditions: for survival rate: untreated controls about 86%
Experimental: as §1, §2, §3, §4

[4] = Differential scanning calorimetry, excipient compatibility; assay type: physicochemical; conditions: crystalline compound, heating 5 K/min up to 300° C., cooling 1 K/min down to −30° C.
Experimental: FIG. 1. Depicts the results of differential scanning calorimetry (DCS) analyses for determining excipient compatibility using a Netzsch DSC 204 apparatus (Netzsch Gerätebau GmbH, Selb, Germany) with a heating rate of 5 K/min up to 300° C. and a cooling rate of 1 K/min down to −30° C. (temperature onset at room temperature (approx. 20° C.)). The below-mentioned samples were tested: crystalline 1-O-octadecyl-2-O-methyl-glycero-3-phosphocholine alone (black curves), the following excipients alone (red curves): lactose (FIG. 1A), crospovidone (FIG. 1B), starch 1500 (FIG. 1C), siliciumdioxide (FIG. 1D), as well as magnesium stearate (FIG. 1E), and binary mixtures of 1-O-octadecyl-2-O-methyl-glycero-3-phosphocholine and each excipient (green curves).
Differential scanning calorimetry (DCS) analyses were performed for determining the compatibility of different excipients for formulating tablets according to the present invention.
DSC is a thermoanalytical technique in which the difference in the amount of heat required to increase the temperature of a sample and reference is measured as a function of temperature. Both the sample and reference are maintained at nearly the same temperature throughout the experiment. Generally, the temperature program for a DSC analysis is designed such that the temperature increases or decreases linearly as a function of time. […]

[5] = 10 μM CHEM + RT (5 Gray) simultaneously, 24 hours incubation, means±SEM, p<0.0001 vs CHEM and RT
[6] = AD + R1881 (two days prior to CHEM) + 5 μM CHEM, 22 hours
[7] = AD + R1881 (two days prior to CHEM) + 10 μM CHEM, 22 hours

## CCCCCCCCCCCCCCCCCCOCC(COP(=O)([O-])OCC[N+](C)(C)C)OC (stereo not drawn) [1-O-octadecyl-2-O-methyl-glycero-3-phosphocholine]
LNCaP C4-2 cells
  apoptosis in CHEM+RT treated cells: enhancement of apoptosis
[1]
  PSA serum levels, combined treatment compared to either individual treatment: significant decrease
[2]; [5]
  Caspase-3/7 activity (RFLU): 1514 ± 102 RFLU
[2]; 10 μM CHEM alone, 24 hours incubation, means±SEM, three experiments, control 193 ± 39
  Caspase-3/7 activity (RFLU): 580 ± 207 RFLU
[2]; 10 μM compound six hours after radiation (5 Gray), FIG. 3C
  extent of apoptosis, increase in cells only exposed to the chemical as compared to combined treatment: about 25%
[2]; 10 μM compound six hours prior to radiation (5 Gray), combined treatment, assay 12 hours after radiation, FIG. 3A
  increase in apoptotic response (caspase-3/7 assay): > 2.5 fold
[2]; [6]
  Caspase-3/7 activity (RFLU): 453 RFLU
[2]; [7]
  Caspase-3/7 activity (RFLU): 962 RFLU
[2]; Contr. cells + 5 μM CHEM, 22 hours after treatment, Contr. 235
  Caspase-3/7 activity (RFLU): 380 RFLU
[2]; Contr. cells + 10 μM CHEM, 22 hours after treatment, Contr. 235
  Caspase-3/7 activity (RFLU): 436 RFLU
[2]; androgen deprivation (AD) two days + 5 μM CHEM, 22 hours, AD alone 81
  Caspase-3/7 activity (RFLU): 126 RFLU
[2]; androgen deprivation (AD) two days + 10 μM CHEM, 22 hours, AD alone 81
  Caspase-3/7 activity (RFLU): 115 RFLU
LNCaP-Res cells
  apoptosis in CHEM+RT treated cells: enhancement of apoptosis
LNCaP cells; [5]
  % Annexin V-PE pos. cells: 31.7 ± 1.0 %
LNCaP cells; 10 μM CHEM alone, 24 hours incubation, means±SEM, three experiments, control 3.6 ± 0.2
  % Annexin V-PE pos. cells: 18.6 ± 1.0%
LNCaP cells; [6]
  % Annexin V-PE pos. cells: 14.6%
LNCaP cells; [7]
  % Annexin V-PE pos. cells: 21.6%
LNCaP cells; Contr. cells + 5 μM CHEM, 22 hours after treatment, Contr. 9.8
  % Annexin V-PE pos. cells: 13.0%
LNCaP cells; Contr. cells + 10 μM CHEM, 22 hours after treatment, Contr. 9.8
  % Annexin V-PE pos. cells: 17.5%
LNCaP cells; androgen deprivation (AD) two days + 5 μM CHEM, 22 hours, AD alone 12.6
  % Annexin V-PE pos. cells: 15.4%
LNCaP cells; androgen deprivation (AD) two days + 10 μM CHEM, 22 hours, AD alone 12.6
  % Annexin V-PE pos. cells: 27.4%
LNCaP cells; androgen-deprived cells, 5 μM and 10 μM
  apoptotic response in androgen-deprived LNCaP cells: dose-dependent significant increase
LNCaP cells; androgen-deprived cells, R1881 added two days prior
  reversal of the apoptotic effect by synthetic androgen added prior to treatment: not reversed
[3]; 10 μM compound alone, FIG. 3A experiment, untreated controls about 85%
  survival rate of tumor cells: about 60%
[3]; 10 μM compound alone, FIG. 3B experiment
  survival rate: about 50%
[3]; 10 μM compound alone, FIG. 3C experiment
  survival of cells: about 45%
[3]; 10 μM compound concomitantly with radiation (5 Gray), FIG. 3B
  survival rate: about 55%
[3]; 10 μM compound six hours after radiation (5 Gray), combined treatment, FIG. 3C
  survival of cells: about 40%
[3]; 10 μM compound six hours prior to radiation (5 Gray), combined treatment, FIG. 3A, untreated controls about 85%
  survival of tumor cells: about 45%

## C[C@]1(O)CC[C@H]2[C@@H]3CCC4=CC(=O)CCC4=C3C=C[C@@]21C [R1881]
[2]; AD + R1881, no CHEM, AD alone 81
  Caspase-3/7 activity (RFLU): 130 RFLU
LNCaP cells; AD + R1881, no CHEM, AD alone 12.6
  % Annexin V-PE pos. cells: 7.0%

## OC[C@H]1O[C@@H](O[C@H]2[C@H](O)[C@@H](O)C(O)O[C@@H]2CO)[C@H](O)[C@@H](O)[C@H]1O (stereo partly drawn) [lactose]
[4]
  interaction of excipient with 1-O-octadecyl-2-O-methyl-glycero-3-phosphocholine (DSC thermogram of binary mixture): show such interactions

## magnesium stearate
[4]
  interaction of excipient with 1-O-octadecyl-2-O-methyl-glycero-3-phosphocholine (DSC thermogram of binary mixture): dominate the thermogram
